Source: patent publication US20090043129A1 (priority 2005, published 2009)
Where two headings read alike, the source gives them in different places.

Legend:
[1] = molecular target: T1, Fatty Acid Amide Hydrolase (FAAH) (Rattus norvegicus, UniProt P97612); assay: biochemical
T1 sequence (P97612 1-579): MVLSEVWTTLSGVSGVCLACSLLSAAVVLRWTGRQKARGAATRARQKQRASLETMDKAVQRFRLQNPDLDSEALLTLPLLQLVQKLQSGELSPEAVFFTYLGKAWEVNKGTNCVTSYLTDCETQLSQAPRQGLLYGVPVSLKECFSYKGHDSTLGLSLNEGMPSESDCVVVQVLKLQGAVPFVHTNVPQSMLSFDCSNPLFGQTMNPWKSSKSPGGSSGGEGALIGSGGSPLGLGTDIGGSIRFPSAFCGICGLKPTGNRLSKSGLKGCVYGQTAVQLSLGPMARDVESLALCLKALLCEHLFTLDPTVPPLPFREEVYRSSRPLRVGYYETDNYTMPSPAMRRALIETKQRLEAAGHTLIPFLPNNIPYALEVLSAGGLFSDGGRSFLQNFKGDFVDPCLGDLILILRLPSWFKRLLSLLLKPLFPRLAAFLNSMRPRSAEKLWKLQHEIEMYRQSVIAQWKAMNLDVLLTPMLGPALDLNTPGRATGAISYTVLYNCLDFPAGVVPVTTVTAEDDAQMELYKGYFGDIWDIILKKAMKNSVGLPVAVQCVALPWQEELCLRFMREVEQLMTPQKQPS
Experimental: Assay for Fatty Acid Amide Hydrolase (FAAH)
The effect of compounds on the enzymatic hydrolysis of [^14C]anandamide (6 μM) was studied using membranes prepared from rat brain incubated with increasing concentrations of compounds in 50 mM Tris-HCl, pH 9, for 30 minutes at 37° C. (Di Marzo et al., 2002). [^14C]ethanolamine produced from [^14C]anandamide hydrolysis was measured counting the scintillation of the aqueous phase after extraction of the incubation mixture with 2 volumes of CHCl3/CH3OH (2:1 by volume). […]

[2] = system: Anandamide Membrane Transporter (AMT); assay: Anandamide uptake by RBL-2H3 cells; assay type: cell-based
Experimental: Assay for the Anandamide Membrane Transporter (AMT)
The effect of the compounds on the uptake of anandamide by the RBL-2H3 cells was studied as described (Di Marzo et al., 2002). Cells were incubated with [^14C]anandamide (4 μM) for 5 minutes at 37° C., in the presence or absence of varying concentrations of the inhibitors. Residual [^14C]anandamide in the incubation media after extraction with CHCl3/CH3OH (2:1 by volume) was used as a measure of the anandamide that was taken up by cells. Data are expressed as the concentration that produces 50% of inhibition of anandamide uptake (IC50) calculated with GraphPad.

[3] = molecular target: T2, CB2 (Rattus norvegicus, UniProt Q9QZN9); assay: Preliminary selection with rat spleen membranes; assay type: binding; details: rat brain and spleen membranes, read-out: CB2 (n.a. class, IC50 in preliminary selection)
T2 construct: from tissue; host or cells: rat spleen membranes
T2 sequence (Q9QZN9 1-360): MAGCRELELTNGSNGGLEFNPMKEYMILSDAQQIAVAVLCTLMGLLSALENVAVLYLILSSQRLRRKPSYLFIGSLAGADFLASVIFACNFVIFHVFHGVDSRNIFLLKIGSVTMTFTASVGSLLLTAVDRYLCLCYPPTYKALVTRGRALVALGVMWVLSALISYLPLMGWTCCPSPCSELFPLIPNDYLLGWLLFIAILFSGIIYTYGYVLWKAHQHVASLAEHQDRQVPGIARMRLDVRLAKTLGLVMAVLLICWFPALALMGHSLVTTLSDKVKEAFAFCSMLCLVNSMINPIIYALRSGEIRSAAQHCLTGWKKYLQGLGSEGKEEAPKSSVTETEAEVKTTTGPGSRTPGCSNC

[4] = molecular target: human recombinant CB2 receptor (Homo sapiens, UniProt P34972); assay: CB2 binding, [3H]CP55,940 displacement, membranes from transfected COS cells; parameters: purchased Perkin-Elmer; host or cells: COS cells; details: for Ki: recombinant human CB2, COS cell membranes
[5] = molecular target: human recombinant CB1 receptor (Homo sapiens, UniProt P21554); assay type: binding; parameters: purchased Perkin-Elmer; host or cells: COS cells
[6] = rat brain membranes, read-out: FAAH (n.a. class)
[7] = anandamide uptake, read-out: AMT IC50
[8] = recombinant human CB1, COS cell membranes

Chain of human recombinant CB2 receptor (P34972 whole entry): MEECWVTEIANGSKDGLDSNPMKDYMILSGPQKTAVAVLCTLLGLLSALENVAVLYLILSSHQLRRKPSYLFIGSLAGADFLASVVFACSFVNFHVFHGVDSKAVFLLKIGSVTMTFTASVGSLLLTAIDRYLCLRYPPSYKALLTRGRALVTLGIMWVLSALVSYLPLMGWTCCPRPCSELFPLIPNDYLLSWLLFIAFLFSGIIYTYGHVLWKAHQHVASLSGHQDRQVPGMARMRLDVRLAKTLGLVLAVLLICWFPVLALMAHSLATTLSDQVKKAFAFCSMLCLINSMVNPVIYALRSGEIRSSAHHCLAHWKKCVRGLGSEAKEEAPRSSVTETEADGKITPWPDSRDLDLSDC
Chain of human recombinant CB1 receptor (P21554 whole entry): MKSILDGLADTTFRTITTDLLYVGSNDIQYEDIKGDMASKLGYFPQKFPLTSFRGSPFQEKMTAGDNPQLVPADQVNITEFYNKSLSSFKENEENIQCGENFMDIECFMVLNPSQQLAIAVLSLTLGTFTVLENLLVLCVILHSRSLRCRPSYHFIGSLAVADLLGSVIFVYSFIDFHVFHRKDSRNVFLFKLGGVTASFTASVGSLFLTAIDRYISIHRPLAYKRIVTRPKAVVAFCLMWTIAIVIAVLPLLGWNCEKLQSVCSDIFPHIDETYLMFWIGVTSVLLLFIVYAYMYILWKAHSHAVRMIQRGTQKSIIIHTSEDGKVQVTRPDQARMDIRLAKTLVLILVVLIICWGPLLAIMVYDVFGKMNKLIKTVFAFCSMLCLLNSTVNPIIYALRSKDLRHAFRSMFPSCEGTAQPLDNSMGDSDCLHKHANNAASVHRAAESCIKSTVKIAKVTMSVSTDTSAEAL

CCCCCCc1ccc(OCCCCCC(=O)Nc2ccc(O)cc2)cc1O
melting point: 128.4 °C

CCCCCCc1ccc(O)cc1OCCCCCC(=O)Nc1ccc(O)cc1
melting point: 106 °C

CCCCCCCCCCCCCCCc1cccc(OCCCCCC(=O)NCCO)c1 [Compound 15, 6-(3-Pentadecyl-phenoxy)-hexanoic acid (2-hydroxy-ethyl)-amide]
IC50 [1, 6]: > 10 µM | IC50 [2, 7]: > 25 µM | melting point: 62.7 °C

CCCCCCCCCCCCCCCc1cccc(OCCCCCC(=O)NC2CC2)c1 [Compound 16, 6-(3-Pentadecyl-phenoxy)-hexanoic acid cyclopropylamide]
IC50 [1]: > 10 µM | melting point: 67.8 °C

CCCCCCCCCCCCCCCc1cccc(OCCCCCC(=O)Nc2ccc(O)cc2)c1 [Compound 17, 6-(3-Pentadecyl-phenoxy)-hexanoic acid (4-hydroxy-phenyl)-amide]
IC50 [1, 6]: > 10 µM | IC50 [2, 7]: > 25 µM | melting point: 103.2 °C

CCCCCCCCCCCCCCCc1cccc(OCCCCCCCCCCC(=O)NCCO)c1 [Compound 18, 11-(3-Pentadecyl-phenoxy)-undecanoic acid (2-hydroxy-ethyl)-amide]
melting point: 83 to 85 °C

CCCCCCCCCCCCCCCc1cccc(OCCCCCCCCCCC(=O)NC2CC2)c1 [Compound 19, 11-(3-Pentadecyl-phenoxy)-undecanoic acid cyclopropylamide]
melting point: 82 °C

CCCCCCCCCCCCCCCc1cccc(OCCCCCCCCCCC(=O)Nc2ccc(O)cc2)c1 [Compound 20, 11-(3-Pentadecyl-phenoxy)-undecanoic acid (4-hydroxy-phenyl)-amide]
melting point: 107 °C

CCCCCc1cc(O)cc(OCCCCCC(=O)NCCO)c1 [Compound 21, 6-(3-Hydroxy-5-pentyl-phenoxy)-hexanoic acid (2-hydroxy-ethyl)-amide]
IC50 [1]: > 10 µM | IC50 [3]: > 10 µM

CCCCCc1cc(O)cc(OCCCCCC(=O)NC2CC2)c1 [Compound 22, 6-(3-Hydroxy-5-pentyl-phenoxy)-hexanoic acid cyclopropylamide]
IC50 [1]: > 10 µM | Ki [4]: 0.96 µM

CCCCCc1cc(O)cc(OCCCCCC(=O)Nc2ccc(O)cc2)c1 [Compound 23, 6-(3-Hydroxy-5-pentyl-phenoxy)-hexanoic acid (4-hydroxy-phenyl)amide]
IC50 [1]: > 10 µM | melting point: 69.2 °C

CCCCCc1cc(O)cc(OCCCCCCCCCCC(=O)Nc2ccc(O)cc2)c1 [Compound 26, 11-(3-Hydroxy-5-pentyl-phenoxy)-undecanoic acid (4-hydroxy-phenyl)-amide]
IC50 [1]: > 10 µM | IC50 ([2]; read-out: AMT (n.a. class)): > 10 µM | Ki [5, 8]: 3 µM | Ki [4]: 1.4 µM

CCCCCc1cc(O)cc(OCCCCCCCCCCCCCCCC(=O)NCCO)c1 [Compound 27, 16-(3-Hydroxy-5-pentyl-phenoxy)-hexadecanoic acid (2-hydroxy-ethyl)-amide]
IC50 [3]: > 10 µM | melting point: 84 to 85 °C | Ki [5, 8]: 12.5 µM

CCCCCc1cc(O)cc(OCCCCCCCCCCCCCCCC(=O)NC2CC2)c1 [Compound 28, 16-(3-Hydroxy-5-pentyl-phenoxy)-hexadecanoic acid cyclopropylamide]
IC50 [3]: > 10 µM | melting point: 91 °C

CCCCCc1cc(O)cc(OCCCCCCCCCCCCCCCC(=O)Nc2ccc(O)cc2)c1 [Compound 29, 16-(3-Hydroxy-5-pentyl-phenoxy)-hexadecanoic acid (4-hydroxy-phenyl)-amide]
IC50 [3]: > 10 µM | melting point: 89.5 °C

O=C(CCCCCOc1cccc(O)c1)NCCO [Compound 30, 6-(3-Hydroxy-phenoxy)-hexanoic acid (2-hydroxy-ethyl)-amide]
IC50 [1]: > 10 µM

O=C(CCCCCOc1cccc(O)c1)NC1CC1 [Compound 31, 6-(3-Hydroxy-phenoxy)-hexanoic acid cyclopropylamide]
IC50 [1]: > 10 µM

O=C(CCCCCCCCCCOc1cccc(O)c1)NCCO [Compound 33, 11-(3-Hydroxy-phenoxy)-undecanoic acid (2-hydroxy-ethyl)-amide]
IC50 [1]: > 10 µM | IC50 [3]: > 10 µM | melting point: 72.1 °C

O=C(CCCCCCCCCCOc1cccc(O)c1)NC1CC1 [Compound 34, 11-(3-Hydroxy-phenoxy)-undecanoic acid cyclopropilamide]
IC50 [1]: > 10 µM | Ki [4]: 5.4 µM

O=C(CCCCCCCCCCCCCCCOc1cccc(O)c1)NCCO [Compound 36, 16-(3-Hydroxy-phenoxy)-hexadecanoic acid (2-hydroxy-ethyl)-amide]
IC50 [3]: > 10 µM | melting point: 94.5 °C

O=C(CCCCCCCCCCCCCCCOc1cccc(O)c1)NC1CC1 [Compound 37, 16-(3-Hydroxy-phenoxy)-hexadecanoic acid cyclopropylamide]
IC50 [3]: > 10 µM | melting point: 105.6 °C | Ki [5, 8]: 4.25 µM

O=C(CCCCCCCCCCCCCCCOc1cccc(O)c1)Nc1ccc(O)cc1 [Compound 38, 16-(3-Hydroxy-phenoxy)-hexadecanoic acid (4-hydroxy-phenyl)-amide]
Ki [5, 8]: 5 µM

CCCCCCc1ccc(OCCCCCC(=O)NCCO)cc1O [Compound 39, 6-(3-Hydroxy-4-hexyl-phenoxy)-hexanoic acid (2-hydroxy-ethyl)-amide]
IC50 [1]: > 10 µM | melting point: 71.2 °C | Ki [4]: 6.43 µM

CCCCCCc1ccc(OCCCCCCCCCCC(=O)NCCO)cc1O [Compound 42, 11-(3-Hydroxy-4-hexyl-phenoxy)-undecanoic acid (2-hydroxy-ethyl)-amide]
IC50 [1, 6]: > 10 µM | IC50 ([2]; read-out: AMT (n.a. class)): > 10 µM | melting point: 85.3 °C | Ki [4]: 2.7 µM

CCCCCCc1ccc(OCCCCCCCCCCC(=O)NC2CC2)cc1O [Compound 43, 11-(3-Hydroxy-4-hexyl-phenoxy)-undecanoic acid cyclopropylamide]
IC50 [1]: > 10 µM | IC50 [2, 7]: > 25 µM | selectivity for CB2 with respect to the CB1 receptors ([4]; CB1 Ki / CB2 Ki): at least 26 times | Ki [4]: 0.35 µM

CCCCCCc1ccc(OCCCCCCCCCCCCCCCC(=O)Nc2ccc(O)cc2)cc1O [Compound 47, 16-(3-Hydroxy-4-hexyl-phenoxy)-hexadecanoic acid (4-hydroxy-phenyl)-amide]
IC50 [3]: > 10 µM | melting point: 133.2 °C

CCCCCCc1ccc(O)cc1OCCCCCC(=O)NCCO [Compound 48, 6-(2-Hexyl-5-hydroxy-phenoxy)-hexanoic acid (2-hydroxy-ethyl)-amide]
IC50 [1, 6]: > 10 µM

CCCCCCc1ccc(O)cc1OCCCCCC(=O)NC1CC1 [Compound 49, 6-(2-Hexyl-5-hydroxy-phenoxy)-hexanoic acid cyclopropylamide]
IC50 [1]: > 10 µM | Ki [4]: 3.57 µM

CCCCCCc1ccc(O)cc1OCCCCCCCCCCC(=O)NCCO [Compound 51, 11-(2-Hexyl-5-hydroxy-phenoxy)-undecanoic acid (2-hydroxy-ethyl)-amide]
IC50 [1]: > 10 µM | IC50 [2, 7]: > 25 µM | melting point: 75.4 °C | Ki [4]: 0.42 µM

CCCCCCc1ccc(O)cc1OCCCCCCCCCCCCCCCC(=O)NC1CC1 [Compound 55, 16-(2-Hexyl-5-hydroxy-phenoxy)-hexadecanoic acid cyclopropylamide]
melting point: 72.8 °C | Ki [5]: 5.5 µM | Ki [4]: 2.49 µM

CCCCCCc1ccc(O)cc1OCCCCCCCCCCCCCCCC(=O)Nc1ccc(O)cc1 [Compound 56, 16-(2-Hexyl-5-hydroxy-phenoxy)-hexadecanoic acid (4-hydroxy-phenyl)-amide]
IC50 [3]: > 10 µM | melting point: 82.4 °C | Ki [5, 8]: 3 µM
